≈ marks a conversion by molar mass, not a printed value. Read-outs that look alike come from different tables or passages of the source.
What was measured:
E. coli CSH2 (RK1) = experiment: microbe, parasite or virus in culture; format: cell-based; conditions: Escherichia coli, 16 h, read-out: Minimum Inhibitory Concentration (MIC), *E. coli CSH2 (RK1), lactamase-producing strain; 10^6 CFU/ml
Method in brief: (§1)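 First, strains were cultured overnight in Mueller Hinton broth. Next, one loopful went onto drug-containing Mueller Hinton agar (10^6 CFU/ml). Finally, after 37° C. incubation for 16 hours, MIC was determined in μg/ml.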

E. coli CSH(RE45) = experiment: microbe, parasite or virus in culture; format: cell-based; conditions: Escherichia coli, 16 h, read-out: Minimum Inhibitory Concentration (MIC), *E. coli CSH(RE45), lactamase-producing strain; 10^6 CFU/ml
Method in brief: as §1

A. calcoaceticus No. 4 = experiment: in vitro antibacterial activity, agar plate dilution method (MIC); format: cell-based, Acinetobacter calcoaceticus; conditions: Acinetobacter calcoaceticus, NO.4, 16 h, 10^6 CFU/ml
Method in brief: as §1

E. cloacae Nek 39 = experiment: as above; format: cell-based; conditions: Enterobacter cloacae, NEK39, 16 h, read-out: Minimum Inhibitory Concentration (MIC), *E. cloacae Nek 39, lactamase-producing strain; 10^6 CFU/ml
Method in brief: as §1

E. coli NIHJ JC2 = experiment: as above; format: cell-based; conditions: Escherichia coli, NIHJJC2, 16 h, read-out: Minimum Inhibitory Concentration (MIC), E. coli NIHJ JC2, 10^6 CFU/ml, 37° C.
Method in brief: as §1

S. aureus 209P NIHJ-JC1 = experiment: as above; format: cell-based; conditions: Staphylococcus aureus, 16 h, read-out: Minimum Inhibitory Concentration (MIC)
Method in brief: as §1

K. oxytoca GN10650 = experiment: as above; format: cell-based; conditions: Klebsiella oxytoca, GN10650, 16 h, read-out: Minimum Inhibitory Concentration (MIC), *K. oxytoca GN10650, lactamase-producing strain; 10^6 CFU/ml
Method in brief: as §1

K. pneumoniae PCI-602 = experiment: as above; format: cell-based; conditions: Klebsiella pneumoniae, PCI602, 16 h, read-out: Minimum Inhibitory Concentration (MIC), K. pneumoniae PCI-602; 10^6 CFU/ml
Method in brief: as §1

P. vulgaris HX-19 = experiment: as above; format: cell-based; conditions: Proteus vulgaris, HX19, 16 h, read-out: Minimum Inhibitory Concentration (MIC)
Method in brief: as §1

M. morganii GN5407 = experiment: as above; format: cell-based; conditions: Morganella morganii, GN5407, 16 h, read-out: Minimum Inhibitory Concentration (MIC), *M. morganii GN5407, lactamase-producing strain; 10^6 CFU/ml
Method in brief: as §1

S. marcescens IAM 1184 = experiment: as above; format: cell-based; conditions: Serratia marcescens, IAM1184, 16 h, read-out: Minimum Inhibitory Concentration (MIC)
Method in brief: as §1

E. cloacae 963 = experiment: as above; format: cell-based; conditions: 10^6 CFU/ml
Method in brief: as §1

E. coli GN5482 = experiment: as above; format: cell-based; conditions: Escherichia coli, GN5482, 16 h
Method in brief: as §1

S. marcescens No. 16-2 = experiment: as above; format: cell-based; conditions: Serratia marcescens, NO.162, 16 h
Method in brief: as §1

K. pneumoniae No. 42 = experiment: as above; format: cell-based; conditions: Klebsiella pneumoniae, NO.42, 16 h, read-out: Minimum Inhibitory Concentration (MIC), *K. pneumoniae No. 42, lactamase-producing strain; 10^6 CFU/ml
Method in brief: as §1

P. vulgaris No. 33 = experiment: as above; format: cell-based; conditions: Proteus vulgaris, 10^6 CFU/ml
Method in brief: as §1

Ps. aeruginosa AKR17 = experiment: as above; format: cell-based, Pseudomonas aeruginosa; conditions: Pseudomonas aeruginosa, AKR17, 16 h
Method in brief: as §1

Ps. aeruginosa AK 109 = experiment: as above; format: cell-based, Pseudomonas aeruginosa; conditions: Pseudomonas aeruginosa, AK109, 16 h
Method in brief: as §1

Ps. aeruginosa IF03445 = experiment: as above; format: cell-based, Pseudomonas aeruginosa; conditions: Pseudomonas aeruginosa, IF03445, 16 h, read-out: Minimum Inhibitory Concentration (MIC), Ps. aeruginosa IF03445; 10^6 CFU/ml
Method in brief: as §1

Ps. cepacia 23 = experiment: as above; format: cell-based, Pseudomonas cepacia; conditions: read-out: Minimum Inhibitory Concentration (MIC)
Method in brief: as §1

[1] = concentration in blood of mice after subcutaneous administration; format: in vivo, mice (ddY type, male); conditions: mouse, sc, 20 mg/kg; for concentration at 0.125 h: 7.5 min; for concentration at 0.25 h: 15 min; for concentration at 0.5 h: 30 min; for concentration at 1 h: 60 min; for concentration at 2 h: 120 min
[2] = system: Enterobacter cloacae GN 5797; experiment: β-lactamase inducibility; format: cell-based; conditions: antibiotic at 50, 10 and 1 μg/ml; cephaloridine as substrate
Procedure: The assay method for induction of β-lactamase by β-latam antibiotics was as follows:
The test organism, Enterobacter cloacae GN 5797, was grown overnight in Mueller Hinton broth (Dlfco Laboratories, Detroit, Mich.) at 37° C. The culture was diluted 10-fold into 20 ml of the flesh medium and incubated with shaking at 37° C. After 2 hours of incubation, antibiotics were added to final concentrations of 50 μg/ml, 10 μg/ml and 1 μg/ml, and the incubation was continued. At 1 hour intervals after the addition of antibiotic, 3 ml of sample was taken, and immediately added with 0.1 ml of 50 mM sodium azide. The cells were harvested and washed with 50 mM phosphate buffer (ph 7.0). The cells were suspended in 5 ml of 50 mM phosphate buffer and disrupted with a sonicater in an ice-water bath. The broken cells were centrifuged at 16,500 G for 40 minutes at 4° C., and the resulting supernatant fluid was used as the crude enzyme. β-Lactamase activity was determined by a sopectrophotometric method (Antmicrob. Agents Chemother. 17, 355-358, 1980) with cephaloridine as substrate. The concentration of protein was determined by the method of Lowry (J. Biol. Chem. 193, 265-275, 1951). […] As a representative example, the compound of EXAMPLE 50 was administered to mice by means of subcutaneous administration, and the concentration in the blood was measured.

[3] = read-out: Minimum Inhibitory Concentration (MIC), A. calcoaceticus No. 4
[4] = S. marcescens IAM 1184, 10^6 CFU/ml
[5] = Enterobacter cloacae, 963, 16 h, read-out: Minimum Inhibitory Concentration (MIC), E. cloacae 963
[6] = read-out: Minimum Inhibitory Concentration (MIC)
[7] = read-out: Minimum Inhibitory Concentration (MIC), *S. marcescens No. 16-2, lactamase-producing strain, 10^6 CFU/ml
[8] = read-out: Minimum Inhibitory Concentration (MIC), Ps. aeruginosa AKR17, 10^6 CFU/ml
[9] = Burkholderia cepacia, 16 h, Ps. cepacia 23, 10^6 CFU/ml
[10] = NO.33, 16 h, read-out: Minimum Inhibitory Concentration (MIC), *P. vulgaris No. 33, lactamase-producing strain

SMILES	MIC (E. coli CSH2 (RK1))	MIC (E. coli CSH(RE45))	MIC (A. calcoaceticus No. 4; [3])	MIC (E. cloacae Nek 39)	MIC (E. coli NIHJ JC2)	MIC (K. oxytoca GN10650)	MIC (K. pneumoniae PCI-602)	MIC (M. morganii GN5407)	MIC (S. marcescens IAM 1184; [4])	MIC (E. cloacae 963; [5])	MIC (E. coli GN5482; [6])	MIC (S. marcescens No. 16-2; [7])	MIC (K. pneumoniae No. 42)	MIC (Ps. aeruginosa AKR17; [8])	MIC (Ps. aeruginosa AK 109; [6])	MIC (Ps. aeruginosa IF03445)	MIC (Ps. cepacia 23; [9])	MIC (S. aureus 209P NIHJ-JC1)	MIC (P. vulgaris HX-19)	MIC (P. vulgaris No. 33; [10])	also measured
CC(C)(ON=C(C(=O)NC1C(=O)N2C(C(=O)O)=C(CSc3nc(C(=O)O)c(-c4ccc(O)c(O)c4)s3)CSC12)c1csc(N)n1)C(=O)O (stereo not drawn) [Ex. 50, trisodium 7β-[2-(2-aminothizaol-4-yl)-2-(1-carboxylate-1-methylethoxyimino)acetamido]-3-[4-carboxylate-5-(3,4-dihydroxyphenyl)thiazol-2-yl]-thiomethyl-3-cephem-4-carboxylate]	< 0.006 µg/mL	0.0125 µg/mL	0.1 µg/mL	0.025 µg/mL	0.39 µg/mL	0.025 µg/mL	< 6 ng/mL	0.025 µg/mL	0.025 µg/mL	0.0125 µg/mL	0.39 µg/mL	0.78 µg/mL	0.05 µg/mL	1.56 µg/mL	0.39 µg/mL	0.39 µg/mL	< 0.006 µg/mL				MIC (S. aureus 209P NIHJ-JC1; S. aureus 209P NIHJ-JC1, 10^6 CFU/ml, 37° C., 16 hours): 50 µg/mL; MIC (P. vulgaris HX-19; P. vulgaris HX-19, 10^6 CFU/ml): < 0.006 µg/mL; MIC (P. vulgaris No. 33; 16 h, *P. vulgaris No. 33, lactamase-producing strain, read-out: Minimum Inhibitory Concentration (MIC)): < 0.006 µg/mL; concentration at 0.125 h [1]: 60500 ng/mL; concentration at 0.25 h [1]: 67000 ng/mL; concentration at 0.5 h [1]: 52300 ng/mL; concentration at 1 h [1]: 18500 ng/mL; concentration at 2 h [1]: 3100 ng/mL; concentration at 4 h ([1]; 240 min): 220 ng/mL
CC(C)(O/N=C(\C(=O)N[C@@H]1C(=O)N2C(C(=O)[O-])=C(C[n+]3ccccc3)CS[C@H]12)c1csc(N)n1)C(=O)O [ceftazidime, reference compound]			6.25 µg/mL (≈ 11.4 µM)	1.56 µg/mL (≈ 2.85 µM)	0.1 µg/mL (≈ 0.183 µM)	0.1 µg/mL (≈ 0.183 µM)	25 ng/mL (≈ 0.0457 µM)	0.1 µg/mL (≈ 0.183 µM)		0.1 µg/mL (≈ 0.183 µM)	1.56 µg/mL (≈ 2.85 µM)		0.39 µg/mL (≈ 0.714 µM)		0.78 µg/mL (≈ 1.43 µM)	1.56 µg/mL (≈ 2.85 µM)		6.25 µg/mL (≈ 11.4 µM)	0.025 µg/mL (≈ 0.0457 µM)	0.05 µg/mL (≈ 0.0915 µM)	MIC (S. marcescens IAM 1184): < 0.006 µg/mL; MIC (S. marcescens No. 16-2; [6]): 1.56 µg/mL (≈ 2.85 µM); concentration at 0.125 h [1]: 25400 ng/mL; concentration at 0.25 h [1]: 24100 ng/mL; concentration at 0.5 h [1]: 17300 ng/mL; concentration at 1 h [1]: 3300 ng/mL; concentration at 2 h [1]: 200 ng/mL
CC(C)(ON=C(C(=O)NC1C(=O)N2C(C(=O)O)=C(CSc3nc(-c4ccc(O)c(O)c4)cs3)CSC12)c1csc(N)n1)C(=O)O (stereo not drawn) [Ex. 44, disodium 7β-[2-(2-aminothiazol-4-yl)-2-(1-carboxylate-1-methylethoxyimino)acetamido]-3-[4-(3,4-dihydroxyphenyl)thiazol-2-yl]thiomethyl-3-cephem-4-carboxylate]	0.0125 µg/mL	0.0125 µg/mL		0.1 µg/mL	0.2 µg/mL	0.025 µg/mL	< 6 ng/mL	0.05 µg/mL	0.05 µg/mL		0.39 µg/mL	1.56 µg/mL	0.1 µg/mL	1.56 µg/mL	0.39 µg/mL	0.39 µg/mL	< 0.006 µg/mL	12.5 µg/mL	0.0125 µg/mL	0.025 µg/mL	β-lactamase inducibility [2]: no substantial β-lactamase-inducing activity was observed; MIC (A. calcoaceticus No. 4; A. calcoaceticus No. 4, read-out: Minimum Inhibitory Concentration (MIC)): 0.2 µg/mL; MIC (E. cloacae 963; Enterobacter cloacae, 16 h, E. cloacae 963, read-out: Minimum Inhibitory Concentration (MIC)): 0.1 µg/mL
CC(C)(O/N=C(\C(=O)N[C@@H]1C(=O)N2C(C(=O)O)=C(CSc3nc4cc(O)c(O)cc4o3)CS[C@H]12)c1csc(N)n1)C(=O)O [Example 76, disodium 7 β-[2-(2-aminothiazol-4-yl)-2-(1-carboxylate-1-methylethoxyimino)acetamido]-3-(5,6-dihydroxybenzoxazol-2-yl) thiomethyl-3-cephem-4-carboxylate]																					β-lactamase inducibility [2]: no substantial β-lactamase-inducing activity was observed
CCON=C(C(=O)N[C@@H]1C(=O)N2C(C(=O)[O-])=C(CSc3ncc(-c4ccc(O)c(O)c4)o3)CS[C@H]12)c1csc(N)n1.[Na+] [Ex. 63, sodium 7β-[2-(2-aminothiazol-4-yl)-2-ethoxyiminoacetamido]-3-[5-(3,4-dihydroxyphenyl)-oxazol-2-yl]thiomethyl-3-cephem-4-carboxylate]	0.0125 µg/mL	0.1 µg/mL	0.78 µg/mL	0.39 µg/mL	0.39 µg/mL	3.12 µg/mL	< 6 ng/mL	0.1 µg/mL		0.2 µg/mL		6.25 µg/mL	0.1 µg/mL			1.56 µg/mL		3.12 µg/mL	0.0125 µg/mL	0.025 µg/mL	MIC (S. marcescens IAM 1184): 0.1 µg/mL; MIC (E. coli GN5482; read-out: Minimum Inhibitory Concentration (MIC), *E. coli GN5482, lactamase-producing strain, 10^6 CFU/ml): 1.56 µg/mL; MIC (Ps. aeruginosa AKR17; [6]): 100 µg/mL; MIC (Ps. aeruginosa AK 109; read-out: Minimum Inhibitory Concentration (MIC), Ps. aeruginosa AK 109, 10^6 CFU/ml): 1.56 µg/mL; MIC (Ps. cepacia 23; Burkholderia cepacia, 23, 16 h): 0.1 µg/mL

— US5061794A, “Cephalosporin derivatives, and antibacterial agents” (priority 1986, dated 1991)
